# Like-named read-outs stand apart in the source and are kept apart here.
# How the values were obtained:
# [1] = tested on: human platelet thromboxane production (cyclooxygenase pathway); assay: Human platelet thromboxane (TXB2) formation from [14C]-arachidonic acid, TLC; assay type: cell-based; settings: for potency as thromboxane inhibitor relative to non-hydroxylated parent: 13-HODE vs 9,11-18:2; for IC50: Platelet, read-out: Inhibitory Potency (I50); for TXB2 formation (FIG. 2): CLA mix 3 and 10 μM, 9,11-18:2 30 and 60 μM, 10,12-18:2 3 and 10 μM, with ionophore A23187; for inhibitory effectiveness on platelet TXB2 formation, CLA mix and pure isomers compared: CLA mix vs pure 9,11- and 10,12-18:2
# Description: (§1) Human platelets were isolated from donors according to previously established procedures (13) and resuspended in Krebs-Henseleit buffer (pH 7.4) at a concentration of 3×10^8 platelets/ml. The platelets (0.5 ml) were placed in a 37° C. water bath for several minutes and then treated with either vehicle (ethanol) or various concentrations of the fatty acid to be tested for 2 min. Next, 10 μM (final concentration) [^14 C]-arachidonic acid was added. In some experiments, 20 μM calcium ionophore A23187 was added about 5 sec. prior to the addition of the arachidonic acid substrate. Ten minutes after the addition of arachidonic acid, the reaction was terminated with 10% formic acid and the products extracted with chloroform-methanol. Product separation and analysis by thin layer chromatography (TLC) was carried out as previously described using unlabeled arachidonic acid, 15-HETE and thromboxane B2 as standards (11). The various radioactive product and unreacted substrate bands were visualized by autoradiography and quantitated either by scraping the bands from the TLC plate and counting the samples in a liquid scintillation counter or by determining the relative band intensities using a Personal Densitometer SI (Molecular Dynamics, Sunnyvale, Calif.) with ImageQuaNT v4.2 software).
# To obtain the results shown in FIG. 2, the human platelets were pretreated with the various concentrations of CLA isomers followed by the addition of calcium ionophore A23187 and [^14 C]-arachidonic acid. Products were isolated, separated by thin layer chromatography as described above. […] The identities of the bands in decreasing order of Rf are as follows: AA-unreacted arachidonic acid, 12-HETE-12-hydroxyeicosatetraenoic acid (a platelet 12-lipoxygenase metabolite), HHT-12-hydroxyheptadecatrienoic acid, TXB2 -thromboxane B2, the latter two products are cyclooxygenase metabolites, origin-sample application point.
# The data shown were obtained by determining the effects of various concentrations of CLA isomers on platelet thromboxane B2 production. […] [^14 C]-thromboxane B2 production by fatty acid-treated platelets relative to vehicle-treated platelets was determined and expressed as % control. Symbols used for various fatty acids: ΔΔ, CLA mix .box-solid.-.box-solid., 10,12-18:2, .smallcircle.-.smallcircle., 9,11-18:2, *-*, 13-HODE, .gradient.-.gradient., 9-HODE.
# [2] = tested on: 12-lipoxygenase (human platelet 12-HETE formation); assay: Human platelet 12-HETE formation from [14C]-arachidonic acid, TLC; assay type: cell-based; settings: CLA mix 3 and 10 μM; 9,11-18:2 30 and 60 μM; 10,12-18:2 3 and 10 μM; with ionophore A23187
# Description: as §1, with “Ten minutes after the addition of arachidonic acid, the reaction was terminated with 10% formic acid and the products extracted with chloroform-methanol.” left out, “software). To obtain the results shown in FIG. 2, the human platelets were pretreated with the various concentrations of CLA isomers followed by the addition of calcium ionophore A23187 and [^14 C]-arachidonic acid. […]” for “software).”
# [3] = human platelets, exogenous arachidonic acid, calcium ionophore A23187, mean ± S.E.M., 6-11 donors
Structure (SMILES),"potency as thromboxane inhibitor relative to non-hydroxylated parent ([1]; 9-HODE vs 10,12-18:2)","enhancement of inhibitory potency relative to the non-hydroxylated analog ([1]; 13-HODE vs 9,11 isomer)","IC50 [1, 3] [µM]",TXB2 formation (FIG. 2) [1],"inhibitory effectiveness on platelet TXB2 formation, CLA mix and pure isomers compared [1]",12-HETE production (FIG. 2) [2],IC50 ([1]; Homo sapiens) [µM],"decrease of inhibitory effectiveness relative to 10,12-18:2 ([1]; 9-HODE vs 10,12-18:2)"
CCCCC[C@H](O)/C=C/C=C\CCCCCCCC(=O)O [13-HODE],"more potent as a thromboxane inhibitor than the parent 9,11-18:2",about five,3 ± 0.7,,,,,
"CCCCCC/C=C/C=C\CCCCCCCC(=O)O [9,11-18:2, 9,11-octadecadienoic acid]",,,16 ± 1.8,TXB2 was inhibited,approximately the same,no effect on the 12-HETE production,,
"CCCCC/C=C\C=C\CCCCCCCCC(=O)O [10,12-18:2, 10,12-octadecadienoic acid]",,,13 ± 4.1,TXB2 was inhibited,approximately the same,no effect on the 12-HETE production,,
CCCCCCCC/C=C\CCCCCCCC(=O)O [Oleic acid],,,,,,,> 60,
CCCCC/C=C\C=C\C(O)CCCCCCCC(=O)O (stereo not drawn) [9-HODE],"less potent than the corresponding non-hydroxylated parent 10,12-18:2",,34 ± 6.5,,,,,more than two

# Source: patent US6077525A, “Use of conjugated linoleic acids” (The George Washington University, priority 1998, dated 2000)
